The results in this text go back to patent US9113629B2, “4-amino-6-(4-substituted-phenyl)-picolinates and 6-amino-2-(4-substituted-phenyl)-pyrimidine-4-carboxylates and their use as herbicides” (DOW AGROSCIENCES LLC, priority 2013, dated 2015).

Format in all cases: in vivo
The subject of assay [1] is HELAN: sunflower (Helianthus annuus). As to the kind of experiment: Pre-emergent Test I herbicidal activity. Conditions: pre-emergence, 336 h, read-out: Visual Growth Reduction (%) 14 Days After Application, HELAN. The procedure: (§1) Pre-emergent Test I Seeds of test species were planted into round plastic pots (5-inch diameter) containing sandy loam soil. After planting, all pots were sub-irrigated 16 h prior to compound application. Compounds were dissolved in a 97:3 v/v (volume/volume) mixture of acetone and dimethyl sulfoxide (DMSO) and diluted to the appropriate concentration in a final application solution containing water, acetone, isopropanol, DMSO and Agri-dex (crop oil concentrate) in a 59:23:15:1.0:1.5 v/v ratio and 0.02% w/v (weight/volume) of Triton X-155 to obtain the spray solution containing the highest application rate. Additional application rates were obtained by serial dilution of the high rate solution with the above application solution. Formulated compound (2.7 mL) was applied pipetted evenly over the soil surface followed by incorporation with water (15 mL). Following treatment, pots were returned to the greenhouse for the duration of the experiment. The greenhouse was programmed for an approximate 15 h photoperiod which was maintained at about 23-29° C. during the day and 22-28° C. during the night. Nutrients and water were added on a regular basis through surface irrigation and supplemental lighting was provided with overhead metal halide 1000-Watt lamps as necessary. Herbicidal effect ratings were obtained 14 days after treatment. All evaluations were made relative to appropriate controls on a scale of 0 to 100 where 0 represents no herbicidal effect and 100 represents plant death or lack of emergence from the soil.

Assay [2] has as its system SETFA: giant foxtail (Setaria faberi). Nature of the assay: Pre-emergent Test I herbicidal activity. Conditions: pre-emergence, 336 h, read-out: Visual Growth Reduction (%) 14 Days After Application, SETFA. The procedure:
as §1

For assay [3], the system named is AVEFA: wild oats (Avena fatua). Nature of the assay: Pre-emergent Test I herbicidal activity. The settings on record: pre-emergence, 336 h, read-out: Visual Growth Reduction (%) 14 Days After Application, AVEFA. The protocol: as §1
The subject of assay [4] is IPOHE: ivyleaf morningglory (Ipomoea hederecea). Nature of the assay: Pre-emergent Test I herbicidal activity. The settings on record: pre-emergence, 336 h, read-out: Visual Growth Reduction (%) 14 Days After Application, IPOHE. The protocol:
as §1

For assay [5], the system named is ECHCG: barnyardgrass (Echinochloa crus-galli). Nature of the assay: Pre-emergent Test I herbicidal activity. Conditions: pre-emergence, 336 h, read-out: Visual Growth Reduction (%) 14 Days After Application, ECHCG. The protocol:
as §1

The subject of assay [6] is VERPE: bird's-eye speedwell (veronica persica). As to the kind of experiment: Post-emergent Test III, herbicidal activity in wheat and barley. Conditions: for pest or weed control at 35 g/ha / pest or weed control at 70 g/ha / pest or weed control at 140 g/ha: Veronica persica, post-emergence, 504 h, read-out: Visual Growth Reduction (%) 21 Days After Application VERPE; for pest or weed control at 35 g/ha: 35 g ai/ha; for pest or weed control at 70 g/ha: 70 g ai/ha; for pest or weed control at 140 g/ha: 140 g ai/ha; for GR50 VERPE / GR80 VERPE: probit analysis, 21 days after application; for GR50 VERPE: dose for growth reduction of 50 percent; for GR80 VERPE: dose for growth reduction of 80 percent. The method, boiled down:
(§2)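 Plants at the second to third true-leaf stage, grown in a greenhouse at about 18/17 °C with a 14 h photoperiod, were sprayed post-emergence at 187 L/ha with the high rate and ½× to 1/16× serial dilutions in an acetone/DMSO/crop-oil/surfactant carrier. Injury was rated visually at 21 d on a 0–100% scale, and GR20–GR90 were derived by probit analysis.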

Assay [7] deals with BROTE: downy brome (Bromus tectorum). The description is as above. Conditions: for pest or weed control at 35 g/ha / pest or weed control at 70 g/ha / pest or weed control at 140 g/ha: Bromus tectorum, post-emergence, 504 h, read-out: Visual Growth Reduction (%) 21 Days After Application BROTE; for pest or weed control at 35 g/ha: 35 g ai/ha; for pest or weed control at 70 g/ha: 70 g ai/ha; for pest or weed control at 140 g/ha: 140 g ai/ha; for GR50 BROTE / GR80 BROTE: probit analysis, 21 days after application; for GR50 BROTE: dose for growth reduction of 50 percent; for GR80 BROTE: dose for growth reduction of 80 percent. The gist of the method:
as §2

For assay [8], the system named is PAPRH: common poppy (Papaver rhoeas). The assay is described as above. Conditions: for pest or weed control at 35 g/ha / pest or weed control at 70 g/ha / pest or weed control at 140 g/ha: Papaver rhoeas, post-emergence, 504 h, read-out: Visual Growth Reduction (%) 21 Days After Application PAPRH; for pest or weed control at 35 g/ha: 35 g ai/ha; for pest or weed control at 70 g/ha: 70 g ai/ha; for pest or weed control at 140 g/ha: 140 g ai/ha; for GR50 PAPRH / GR80 PAPRH: probit analysis, 21 days after application; for GR50 PAPRH: dose for growth reduction of 50 percent; for GR80 PAPRH: dose for growth reduction of 80 percent. The gist of the method: as §2

The test system of assay [9] is AMARE: redroot pigwseed (Amaranthus retroflexus). As to the kind of experiment: Pre-emergent Test I herbicidal activity. The settings on record: pre-emergence, 336 h, read-out: Visual Growth Reduction (%) 14 Days After Application, AMARE. The protocol:
as §1

Turning to `Nc1c(F)c(-c2ccc(Br)cc2)nc(C(=O)O)c1Cl` [Compound 20], the pest or weed control at 4000 g/ha in assay [1] (4 kg ai/ha) fell in the range of 95 to 100%. The pest or weed control at 4000 g/ha in assay [2] (4 kg ai/ha) lay within 95 to 100%. In addition, the pest or weed control at 4000 g/ha in assay [3] (4 kg ai/ha) fell in the range of 95 to 100%. In [4] (4 kg ai/ha), the pest or weed control at 4000 g/ha fell in the range of 95 to 100%. The pest or weed control at 4000 g/ha in assay [5] (4 kg ai/ha) fell in the range of 95 to 100%. Besides, in [6], the pest or weed control at 35 g/ha was in the range of 60 to 74%, the pest or weed control at 70 g/ha is 60 to 74%, the pest or weed control at 140 g/ha is 75 to 84% and the “GR50 VERPE” value is listed as 33 g ai/ha. Further, in assay [6], the “GR80 VERPE” value was more than 140 g ai/ha. In assay [7], the pest or weed control at 35 g/ha lay in the range of 75 to 84%, the pest or weed control at 70 g/ha was 85 to 94%, the pest or weed control at 140 g/ha was in the range of 85 to 94% and the “GR50 BROTE” value came out at 3 g ai/ha. For the same compound, the “GR80 BROTE” value in assay [7] came out at 87 g ai/ha. Besides, in [8], the pest or weed control at 35 g/ha fell in the range of 95 to 100%, the pest or weed control at 70 g/ha is 95 to 100%, the pest or weed control at 140 g/ha was 95 to 100% and the “GR50 PAPRH” value was determined as 1 g ai/ha. Further, in assay [8], the “GR80 PAPRH” value stood at 1 g ai/ha.
Consider `N#Cc1ccc(-c2nc(C(=O)O)c(Cl)c(N)c2F)cc1` [Compound 39], for which the pest or weed control at 2000 g/ha in [1] (2 kg ai/ha) was in the range of 95 to 100%. Moreover, the pest or weed control at 2000 g/ha in [3] (2 kg ai/ha) was 85 to 94%. Besides, the pest or weed control at 2000 g/ha in assay [4] (2 kg ai/ha) lay within 95 to 100%. The pest or weed control at 2000 g/ha in assay [5] (2 kg ai/ha) is 95 to 100%. In assay [9] (2 kg ai/ha), the pest or weed control at 2000 g/ha lay within 95 to 100%. Also, in [6], the pest or weed control at 35 g/ha was 85 to 94%, the pest or weed control at 70 g/ha lay within 85 to 94%, the pest or weed control at 140 g/ha fell in the range of 95 to 100% and the “GR50 VERPE” value was 1 g ai/ha. The “GR80 VERPE” value in [6] turned out to be 12 g ai/ha. In addition, in assay [7], the pest or weed control at 35 g/ha was 0 to 29%, the pest or weed control at 70 g/ha lay within 0 to 29% and the pest or weed control at 140 g/ha is 0 to 29%. In assay [8], the pest or weed control at 35 g/ha lay within 95 to 100%, the pest or weed control at 70 g/ha was 95 to 100%, the pest or weed control at 140 g/ha fell in the range of 95 to 100% and the “GR50 PAPRH” value was 0 g ai/ha. For the same compound, in [8], the “GR80 PAPRH” value is recorded as 0 g ai/ha.
Take `COC(=O)c1nc(-c2ccc(OC(F)F)cc2)c(F)c(N)c1Cl` [Compound 85]: in assay [1] (3.76 kg ai/ha), the pest or weed control at 3760 g/ha lay in the range of 95 to 100%. In addition, in assay [3] (3.76 kg ai/ha), the pest or weed control at 3760 g/ha lay within 75 to 84%. Further, the pest or weed control at 3760 g/ha in [4] (3.76 kg ai/ha) fell in the range of 30 to 44%. Also, the pest or weed control at 3760 g/ha in assay [5] (3.76 kg ai/ha) lay within 95 to 100%. In assay [9] (3.76 kg ai/ha), the pest or weed control at 3760 g/ha was 95 to 100%. Further, in assay [6], the pest or weed control at 35 g/ha lay within 30 to 44%, the pest or weed control at 70 g/ha lay in the range of 45 to 59%, the pest or weed control at 140 g/ha lay in the range of 60 to 74% and the “GR50 VERPE” value is 90 g ai/ha. Further, in assay [6], the “GR80 VERPE” value was more than 140 g ai/ha. Also, in assay [7], the pest or weed control at 35 g/ha was 0 to 29%, the pest or weed control at 70 g/ha is 0 to 29%, the pest or weed control at 140 g/ha lay in the range of 0 to 29% and the “GR50 BROTE” value is reported as more than 140 g ai/ha. For the same compound, the “GR80 BROTE” value in assay [7] was more than 140 g ai/ha. Further, in assay [8], the pest or weed control at 35 g/ha fell in the range of 85 to 94%, the pest or weed control at 70 g/ha was 95 to 100%, the pest or weed control at 140 g/ha is 95 to 100% and the “GR50 PAPRH” value is 1 g ai/ha. The “GR80 PAPRH” value in [8] came to 3 g ai/ha.
With `Nc1c(F)c(-c2ccc(Br)c(F)c2F)nc(C(=O)O)c1Cl` [Compound 147], the pest or weed control at 3960 g/ha in [1] (3.96 kg ai/ha) lay in the range of 95 to 100%. Moreover, the pest or weed control at 3960 g/ha in assay [2] (3.96 kg ai/ha) fell in the range of 95 to 100%. The pest or weed control at 3960 g/ha in assay [3] (3.96 kg ai/ha) is 95 to 100%. For the same compound, in assay [4] (3.96 kg ai/ha), the pest or weed control at 3960 g/ha lay within 95 to 100%. Also, the pest or weed control at 3960 g/ha in [5] (3.96 kg ai/ha) lay within 95 to 100%. In assay [7], the pest or weed control at 35 g/ha is 75 to 84%, the pest or weed control at 70 g/ha was 85 to 94%, the pest or weed control at 140 g/ha is 85 to 94% and the “GR50 BROTE” value amounted to 6 g ai/ha. The “GR80 BROTE” value in assay [7] came to 28 g ai/ha.
For the compound `C=Cc1c(C(=O)O)nc(-c2ccc(Cl)c(F)c2)c(F)c1N` [Compound 214], in assay [1] (4.04 kg ai/ha), the pest or weed control at 4040 g/ha was 95 to 100%. Moreover, the pest or weed control at 4040 g/ha in assay [2] (4.04 kg ai/ha) is 95 to 100%. Also, the pest or weed control at 4040 g/ha in assay [3] (4.04 kg ai/ha) lay in the range of 85 to 94%. In assay [4] (4.04 kg ai/ha), the pest or weed control at 4040 g/ha lay in the range of 95 to 100%. Besides, the pest or weed control at 4040 g/ha in [5] (4.04 kg ai/ha) was 95 to 100%. Moreover, in assay [7], the pest or weed control at 35 g/ha is 0 to 29%, the pest or weed control at 70 g/ha was in the range of 0 to 29%, the pest or weed control at 140 g/ha lay in the range of 0 to 29% and the “GR50 BROTE” value is listed as more than 140 g ai/ha. For the same compound, the “GR80 BROTE” value in [7] is more than 140 g ai/ha.
